Measurements from patent US20130005812A1, “METHOD FOR ALLEVIATING ALLERGIC ASTHMA AND ALLERGIC RESPONSE BY USING BITTER MELON COMPOSITION” (NATIONAL TAIWAN UNIVERSITY, priority 2011, published 2013).

Experiments:
Assay type in all cases: in vivo, BALB/c mice
[1] = Growth and feed intake of OVA-sensitized mice
Protocol: (§1) Inbred female BALB/c mice (4 weeks old) were purchased from the Laboratory Animal Center, National Taiwan University and housed in a room with constant temperature of 23±2° C. The animal room was kept on a 12-h light and 12-h dark cycle. The mice were housed and kept on free diet and water to acclimatize before feeding the experimental diet. Diet ingestions are recorded every 3˜4 days, and mice body weight were recorded every week. When mice were in 8 week old, the mice were sensitized and challenged to induce allergic reaction at week 8, 10 and 12 by an intraperitonal injection (i.p.) of antigen containing ovalbumin antigen and adjuvant (Imject® Alum). Blood samples were collected on two days before injection and on two weeks after last injection for analysis of OVA-specific antibodies. Mice were divided in five groups based on OVA-specific IgE antibody and body weight, namely OVA-oil group (the control group), OVA-BGP group (feed containing 5% of freeze dried bitter melon powder), OVA-CLN group (tube feeding containing 35 mg CLN), OVA-Pred (prednisolone, the positive control group), and PBS-oil (the non-sensitized group), respectively. Mice diet was based on AIN-76 formulation (feed composition referred to J. Nutri. 107: 1340-1384, 1977). Administration of steroid prednisolone by tube feeding started 4 days before AHR induction and last to the day sacrificed. After 4 days of feeding, mice were challenged with 5% aerosol of OVA solution, while the PBS-oil group was administered with aerosol PBS. Change of mice airway resistance was measured after 13 days of feeding, and mice were sacrificed on day 16.
BALB/c mice were sensitized every other week for three times. Two weeks before the last sensitization mice were divided into five groups according to OVA-specific IgE and body weight, then different experimental diet were provided for 16 days. […] In the aspect of daily ingestion, no difference was observed among these mice groups.

[2] = Organ weight and relative organ weight of OVA-sensitized mice
Protocol: as §1
After 16 days of feeding, the absolute weight of heart of OVA-BGP treated mice was less than the OVA-oil treated mice. […] There was no difference between the OVA-CLN group and control group. […] The absolute weight and relative weight of lung of PBS-oil mice group were lower than sensitized mice groups.

OVA-sensitized mice [3] = assay: Airway hyperresponsiveness (Penh, methacholine challenge, whole-body plethysmograph); conditions: Mch challenge 12.5 mg/ml or higher; after 13 days feeding; FIG. 2
Protocol: Inbred female BALB/c mice (4 weeks old) were purchased from the Laboratory Animal Center, National Taiwan University and housed in a room with constant temperature of 23±2° C. The animal room was kept on a 12-h light and 12-h dark cycle. The mice were housed and kept on free diet and water to acclimatize before feeding the experimental diet. Diet ingestions are recorded every 3˜4 days, and mice body weight were recorded every week. When mice were in 8 week old, the mice were sensitized and challenged to induce allergic reaction at week 8, 10 and 12 by an intraperitonal injection (i.p.) of antigen containing ovalbumin antigen and adjuvant (Imject® Alum). […] Change of mice airway resistance was measured after 13 days of feeding, and mice were sacrificed on day 16. […]
After an inhaled antigen challenge, airway resistance of the mice were tested the following day using Buxco system (Biosystem XA, Buxco Electronics Inc. Sharon, Conn., USA), in which the differential pressure transducer (Buxco) and preamplifier (MAX II, Buxco) were used to collect change information of mice respiratory and to calculate lung Penh value (Penh, enhanced pause). […] After excess aerosol was evacuated, an average Penh value per minute was recorded. […] The same challenge process was performed at each concentration, and an average Penh value per minute was recorded after 3 mins after each challenge. […]

OVA-sensitized mice [4] = assay: Cytokine, eotaxin and PGE2 level in BALF (ELISA); conditions: day 16; mean ± SD
Protocol: as §1
After mice were sacrificed, fur and skin in the mice neck were incised and muscle surrounding the trachea was tear open to expose the trachea. A small hole was made on the trachea near the head with scissors to intubate tracheal tubing. After intubation, their lungs and airways were lavaged with […] of sterile PBS. Two ml of bronchoalveolar lavage fluid (BALF) was centrifuged at 1500 rpm for 7 mins at 4° C. The supernatant (BALF) was collected and stored at −80° C. for cytokine concentration determination. The cell pellet was washed with HBSS buffer twice and re-suspended in 10% FBS/RPMI medium. Total leukocytes were counted with a hemocytometer using trypan blue dye exclusion method. After the cell concentration was adjusted to 5×10^5 cell/ml, aliquots of 100 μl total cells were centrifuged with cytospin at 500 rpm for 2 mins and then stained with Liu A for 30 seconds. After excess stain was washed off and air dried, the cells were stained with Liu B for 5 seconds. Slides were air-dried and sealed with Arabic gum. […] Two hundreds of leukocytes were counted on each slide, which includes four different cells, eosinophil, neutrophil, lymphocyte and monocyte.
BD Pharmingen System was provided as an example. Cytokine concentration was determined by ABC (avidin-biotin conjugated system) ELISA method. Primary antobiody was added to the 96-microwell plate wells and incubated at 4° C. overnight. After incubation, plates were washed four times with PBST buffer. To block non-specific binding, block buffer were added to each well and the plates were incubated at room temperature for 1 h. After incubation, plates were washed five times with ELISA wash buffer. Appropriately diluted samples or standard solution were then added to the 96-microwell plate wells and the plates were incubated at room temperature for 2˜3 h. After incubation, plates were washed with buffer six times then secondary antibody for detection was added to each well. Plates were incubated for another 1 h. After incubation, plates were washed seven times with ELISA wash buffer. Streptavidin-HRP (horseradish peroxidase) was added to each well and the reaction was allowed to react for 30 mins. After reaction, the plates were washed with ELISA buffer eight times and then HRP-substrate solution was added to the 96-microwell plate wells. […]

OVA-sensitized mice [5] = assay: Leukocyte numbers in BALF; conditions: FIG. 3A-3B
Protocol: Inbred female BALB/c mice (4 weeks old) were purchased from the Laboratory Animal Center, National Taiwan University and housed in a room with constant temperature of 23±2° C. The animal room was kept on a 12-h light and 12-h dark cycle. The mice were housed and kept on free diet and water to acclimatize before feeding the experimental diet. Diet ingestions are recorded every 3˜4 days, and mice body weight were recorded every week. When mice were in 8 week old, the mice were sensitized and challenged to induce allergic reaction at week 8, 10 and 12 by an intraperitonal injection (i.p.) of antigen containing ovalbumin antigen and adjuvant (Imject® Alum). Blood samples were collected on two days before injection and on two weeks after last injection for analysis of OVA-specific antibodies. […] Change of mice airway resistance was measured after 13 days of feeding, and mice were sacrificed on day 16.
After mice were sacrificed, fur and skin in the mice neck were incised and muscle surrounding the trachea was tear open to expose the trachea. […] Total leukocytes were counted with a hemocytometer using trypan blue dye exclusion method. […] Two hundreds of leukocytes were counted on each slide, which includes four different cells, eosinophil, neutrophil, lymphocyte and monocyte.

[6] = test system: splenocytes of OVA-sensitized mice; assay: Cytokine secretion by OVA-specific stimulated splenocytes ex vivo; conditions: mean ± SD
Protocol: as §1
Mice were sacrificed and their spleens were aseptically removed and suspended in 3 cm incubation dish containing 3 ml TCM/RPMI solution. Spleen tissue was minced with rear end of syringe and the upper layer cell suspension was collected and placed in 15 ml centrifuge tube. Another 3 ml HBSS buffer was added to wash the dish and residual cells were collected. Cell suspensions were centrifuged at 1500 rpm for 10 mins Supernatant was discard and the precipitated cells were re-suspend in ACK lysing buffer. After 1 minute, HBSS buffer was added to the suspension and then centrifuged at 1500 rpm for 10 mins Cell pellet was washed with HBSS buffer for 3 times. 2 ml of TCM/RPMI medium was added to re-suspend the cells. Cell number was counted and adjusted to 1×10^7 cell/ml. 500 μl of the cell suspension was added to 48 well plates. […] After 48 hours incubation, supernatants were collected and stored at −80° C.
BD Pharmingen System was provided as an example. Cytokine concentration was determined by ABC (avidin-biotin conjugated system) ELISA method. Primary antobiody was added to the 96-microwell plate wells and incubated at 4° C. overnight. After incubation, plates were washed four times with PBST buffer. To block non-specific binding, block buffer were added to each well and the plates were incubated at room temperature for 1 h. After incubation, plates were washed five times with ELISA wash buffer. Appropriately diluted samples or standard solution were then added to the 96-microwell plate wells and the plates were incubated at room temperature for 2˜3 h. After incubation, plates were washed with buffer six times then secondary antibody for detection was added to each well. Plates were incubated for another 1 h. After incubation, plates were washed seven times with ELISA wash buffer. […] The plates were measured the absorbance at 405 nm by ELISA reader.

[7] = after 16 days feeding, mean ± SD

## CCCC/C=C/C=C/C=C\CCCCCCCC(=O)O [OVA-CLN, Conjugated linolenic acid]
[1]; 14 week-old, before experimental feeding, mean ± SD
  Initial Body weight: 22.7 ± 1.30 g
[1]; 16 week-old, after 16 days feeding, mean ± SD
  Final Body Weight: 22.0 ± 1.52 g
[1]; 16 days feeding, in words
  Effect on mice growth (body weight): did not affect mice growth
[1]; mean ± SD
  Feed Intake: 2.99 ± 0.31 g/day
[2]; [7]
  Heart absolute weight: 0.12 ± 0.02 g
  Heart relative weight: 0.56 ± 0.06%
  Kidney absolute weight: 0.29 ± 0.01 g
  Kidney relative weight: 1.30 ± 0.05%
  Liver absolute weight: 1.28 ± 0.15 g
  Liver relative weight: 5.80 ± 0.38%
  Lung absolute weight: 0.48 ± 0.08 g
  Lung relative weight: 2.21 ± 0.46%
  Spleen absolute weight: 0.080 ± 0.026 g
  Spleen relative weight: 0.37 ± 0.12%
OVA-sensitized mice [3]
  Airway hyperresponsiveness (Penh) vs OVA-oil group: alleviation of AHR
OVA-sensitized mice [4]
  Eotaxin in BALF: 27.3 ± 8.5 pg/mL
  IL-1β in BALF: 21.0 ± 9.5 pg/mL
  IL-4 in BALF: 39.1 ± 33.9 pg/mL
  IL-5 in BALF: 326 ± 183 pg/mL
  IL-6 in BALF: 12.2 ± 27.8 pg/mL
  IL-13 in BALF: 254 ± 75 pg/mL
  PGE2 in BALF: 17.2 ± 16.1 ng/mL
  TNF-α in BALF: 64.5 ± 29.3 pg/mL
OVA-sensitized mice [5]
  Eosinophils in BALF vs OVA-oil group: less eosinophils infiltration

## C[C@]12C=CC(=O)C=C1CC[C@@H]1[C@@H]2[C@@H](O)C[C@@]2(C)[C@H]1CC[C@]2(O)C(=O)CO [OVA-Pred, prednisolone]
[2]; in words
  Relative weight of liver vs OVA-oil group: significant lower
OVA-sensitized mice [3]
  Airway hyperresponsiveness (Penh) vs OVA-oil group: alleviation of AHR
OVA-sensitized mice [5]
  Total leukocyte number in BALF vs OVA-oil group: less than those in the OVA-oil group
[6]
  IFN-γ secretion by splenocytes: 110 ± 50 pg/mL
  IL-2 secretion by splenocytes: 66.9 ± 20.9 pg/mL
  IL-4 secretion by splenocytes: 33.4 ± 14.5 pg/mL
  IL-5 secretion by splenocytes: 2.12 ± 1.85 ng/mL
  IL-13 secretion by splenocytes: 322 ± 118 pg/mL
